# Measured values taken from patent US20240016772A1, “Compositions And Methods Comprising D-Cysteine Or A D-Derivative Thereof” (UNIVERSITE DE GENEVE, priority 2020, published 2024).
# “Also recorded” adds a separate entry of the source. Peptide text beside a SMILES is read from it. * marks the point of attachment. Cbz = O=C(OCc1ccccc1)*; CH2F = FC*
# Tests used:
# [1] = test system: A549 lung cancer cells; assay: Proliferation of A549 cells with D-cysteine and 3-MST inhibitor HMPSNE; assay type: cell-based, human; settings: D-cysteine 100 μM and/or HMPSNE
# Protocol: (§1) A549 lung tumor cells (FIG. 10A) or MDA-MB-231 breast tumor cells (FIG. 10B) were cultured in complete media (CM) in the absence or presence of 100 μM D-cysteine (D-Cys), with (grey bars) or without (black bars) HMPSNE, a cell-membrane permeable inhibitor of 3-MST. Cell numbers were counted after 72 hours. * P<0.05, ** P<0.01, *** P<0.001, **** P<0.0001.
# (§2) Furthermore, as mentioned above, it exerts toxic effects via iron chelation. Therefore, to survive D cysteine, cells need to increase its catabolism. There are two main pathways for cysteine catabolism: one is via its enzymatic breakdown to produce hydrogen sulfur and organic intermediates that will serve as carbon sources, and the second is via oxidative metabolism through cysteine dioxygenase 48. Inhibition of cysteine catabolism can be obtained with inhibitors of the key enzymes participating in this pathway. We have used a commercially available inhibitor of 3-MST, HMPSNE 49 to inhibit the enzyme in A549 lung cancer cells and in MDA-MB-231 breast cancer cells in the presence or absence of D cysteine.
# [2] = test system: MDA-MB-231 breast cancer cells; assay: Proliferation of MDA-MB-231 cells with D-cysteine and 3-MST inhibitor HMPSNE; assay type: cell-based; settings: D-cysteine 100 μM and/or HMPSNE
# Protocol: as §1, §2
# [3] = test system: A549 cells; assay: Cell death of A549 cells exposed to D-cysteine (passage p1, caspase 3 Western blotting, zVAD-fmk, CRISPR screen selection); assay type: cell-based, human
# Protocol: (§3) A549 lung tumor cells (FIG. 5A) or BEAS-2B normal bronchial epithelial cells (FIG. 5B) were cultured in complete media (CM) in the absence or presence of 500 μM D-cysteine (D-Cys). Cell numbers were analyzed after 72 h and after splitting of cells (p1). Cell numbers are expressed as % of cells cultured in the absence of D-cysteine. **** P<0.0001.
# (§4) We therefore decided to test whether the D-cysteine-mediated inhibition of OCR could affect cell growth in a regular normal medium complemented with fetal calf serum. Most culture media used for cell culture contain 300 μM L-cystine. […] Importantly, some cancer cell lines, including HeLa cells (FIG. 4A), the MPM cell line H2052/484 (FIG. 4B), and osteosarcoma cell line 143B (not shown), were insensitive both in 2D cultures or in colony formation assays. The decrease in numbers of cells seen after 72 h exposure to D-cysteine was due to decreased cell proliferation. […] Importantly, in contrast to the results with cancer cells, normal human bronchial epithelial BEAS-2B cells were resistant to D-cysteine exposure even at very high concentration (FIG. 5B).
# For these experiments a pooled lentiviral CRISPR library (Addgene) targeting 19114 human genes was used to infect A549 cells, stably expressing the Cas9 nuclease. Cells were then cultured in the presence of 0.5 mM D-cysteine, a concentration sufficient to induce A549 cell death. After 2-3 weeks, the surviving clones were recovered and the sgRNAs were amplified by PCR and sequenced using next-generation sequencing (NGS) to identify the targeted genes (FIG. 6).
# [4] = test system: A549 cells; assay: Mitochondrial respiration (OCR) of A549 cells; assay type: cell-based, human; settings: 500 μM, 72 h
# Protocol: FIG. 9: D-cysteine impairs mitochondrial respiration of lung tumor cells. A549 cells were cultured for 72 h in complete media (CM) supplemented or not with 500 μM D-cysteine (D-Cys), and oxygen consumption rate (OCR) was quantified both before (basal respiration) and after sequential addition of oligomycin and FCCP (maximal respiration).
# [5] = test system: cell lines derived from malignant pleural mesothelioma (MPM); assay: Colony formation, MPM cell lines; assay type: cell-based; settings: colony formation assays or spheroids
# Protocol: (§5) FIGS. 4A-4D: D-cysteine affects tumor cell viability. Colony formation assays in presence or absence 0.1 mM D-cysteine (D-Cys) for 2 weeks. FIG. 4A: Lung tumor cell lines+cervix cell line (HeLa). FIG. 4B: MPM cell lines. FIG. 4C: A549. FIG. 4D: LuCa62 spheroid formation in presence or absence of 0.1 mM, 0.2 mM or 0.5 mM D-cysteine for 17 days.
# as §4
# [6] = test system: A549 cells; assay: Iron concentration in A549 cells by ICP-MS; assay type: cell-based, human; settings: 72 h
# Protocol: FIG. 3. Iron concentration in A549 cells cultured in the presence or absence of D-Cysteine for 72 h. Iron was measured using ICP-MS (Inductively coupled plasma mass spectrometry).
# Moreover, D-cysteine could also trigger ferritinophagy, which is a process triggered in cells lacking iron. The most likely explanation is that D-cysteine, which accumulates in cells since it is not consumed during protein synthesis or other pathways, can react with iron through its thiol group, thus acting as an iron chelator. […] As a consequence, intracellular iron is depleted, and cells trigger ferritinophagy releasing ferric iron, thus leading to ROS production, lipid peroxidation and cell death.
# [7] = test system: osteosarcoma cell line 143B; assay: 2D culture / colony formation, 143B; assay type: cell-based; settings: 2D cultures or colony formation assays; not shown
# Protocol: as §4
# [8] = test system: HeLa cells; assay: 2D culture / colony formation, HeLa; assay type: cell-based; settings: 2D cultures or colony formation assays
# Protocol: as §5, §4
# [9] = test system: A549 cells; assay: Oxidized (GSSG) and total (GSH) glutathione levels in A549 cells; assay type: cell-based, human; settings: 500 μM, 72 h
# Protocol: (§6) A549 cells were cultured for 72 h in complete medium (CM) with or without 500 μM D-cysteine (D-Cys) and different cellular characteristics were analyzed. FIG. 8A: Oxidized (GSSG) and total (GSH) glutathione levels. FIG. 8B: Mitochondrial ROS production by MitoSOX staining. FIG. 8C: Lipid peroxidation by Bodipy C11 staining. MFI=Mean of Fluorescence Intensity (Flow cytometry). * P<0.05.
# (§7) We first tested whether D-cysteine could trigger ferroptosis. Ferroptosis is a type of death due to iron-mediated ROS production and lipid peroxidation. In most cases, it is triggered by decreased glutathione levels.
# [10] = test system: A549 cells; assay: Proteome analysis (LC-MS/MS with TMT) of A549 cells exposed to D-cysteine; assay type: cell-based, human; settings: 500 μM, 72 h, FDR<0.01
# Protocol: To understand how D-cysteine modifies protein expression, A549 cells were grown in the presence of D-cysteine for 3 days and total cellular proteins were compared to control cells grown in parallel in the presence of L-cysteine. For these experiments liquid chromatography-tandem mass spectrometry (LC-MS/MS) coupled with tandem mass tagging (TMT) was employed, a procedure which enables simultaneous protein identification and relative quantification of two different samples in the same proteomics experiment.
# Proteome analysis of A549 cells cultured in the absence or presence of 500 μM D-cysteine for 72 h. […] FC=Fold change.
# [11] = test system: H1299 lung adenocarcinoma cells; assay: Colony formation / proliferation, H1299; assay type: cell-based; settings: colony formation assays or spheroids
# Protocol: as §5, §4
# [12] = D-cysteine quantification in blood (serum) of mice after gavage; assay type: in vivo; settings: 500 mg/kg by gavage, no DAAO inhibitor, data not shown
# Protocol: As described below, we have initiated experiments in which we administer D-cysteine (500 mg/kg) by gavage, and using the technique described in^37, we have measured the levels of D-cysteine in serum. […] We reasoned that the enzyme D amino oxidase (DAAO), which is known to oxidize D-amino acids and which in mice is highly expressed in the kidney, could explain the rapid clearance of D-cysteine from the blood. We therefore co-administered D-cysteine with an inhibitor of DAAO (JHU 1377). Using this protocol, we achieved higher levels of D-cysteine in the blood (Table 2) and indeed levels higher than that needed to repress tumor cell growth in vitro. Thus far we have only assessed the pharmacokinetics of D-cysteine during the first 6 h following administration. In future experiments we plan to repeat the analysis over longer time periods.
# DAAO inhibitor JHU 1377 (30 mg/kg) was injected into mice, followed 2 h later by D-cysteine gavage (500 mg/kg). Blood was collected after 2, 4, and 6 h and levels of L- and D-cysteine were quantified in the serum.
# [13] = test system: BZR tumorigenic bronchial epithelial cells; assay: Colony formation / proliferation, BZR; assay type: cell-based; settings: colony formation assays or spheroids
# Protocol: as §5, §4
# [14] = test system: BEAS-2B normal bronchial epithelial cells; assay: Proliferation of BEAS-2B normal cells; assay type: cell-based, human; settings: 500 μM; 72 h and after splitting (p1); even at very high concentration
# Protocol: as §3, §4
# [15] = test system: MDA-MB-231 triple-negative breast cancer cells; assay: Colony formation / proliferation, MDA-MB-231; assay type: cell-based; settings: colony formation assays or spheroids
# Protocol: as §4
# [16] = rat; 500 mg/kg daily by gavage for one month; cited from earlier work
# [17] = test system: A549 cells; assay: Proliferation of A549 cells (cell counts after 72 h / 3 days); assay type: cell-based, human; settings: 500 μM added to culture medium, cells counted after 3 days (72 h)
# Protocol: FIG. 1. Effect of L- and D-Cysteine, each tested at 500 microM, on the proliferation of A549 cells. Cells were counted 3 days after addition of L- or D-Cysteine. (CM=culture medium)
# as §3, §4
# [18] = test system: LuCa62 lung adenocarcinoma cells; assay: Colony formation / spheroid formation assay, LuCa62; assay type: cell-based, human; settings: colony formation (0.1 mM, 2 weeks) or spheroids (0.1, 0.2 or 0.5 mM, 17 days)
# Protocol: as §5, §4
# [19] = test system: A549 cells; assay: Lipid peroxidation by Bodipy C11 staining; assay type: cell-based, human; settings: 500 μM, 72 h
# Protocol: as §6, §7
# [20] = test system: MPM cell line H2052/484; assay: 2D culture / colony formation, H2052/484; assay type: cell-based; settings: 2D cultures or colony formation assays
# Protocol: as §5, §4
# [21] = test system: A375 melanoma cells; assay: Colony formation / proliferation, A375; assay type: cell-based; settings: colony formation assays or spheroids
# Protocol: as §4
# [22] = test system: A549 cells; assay: Mitochondrial ROS production by MitoSOX staining; assay type: cell-based, human; settings: 500 μM, 72 h
# Protocol: as §6, §7
# [23] = test system: mitochondrial respiration; assay: Oxygen consumption rate of cells in poor medium with single amino acids; assay type: cell-based; settings: cells in poor medium containing only glucose, each amino acid tested separately; data not shown
compound,measurement,setting,value
Cc1cc(=O)[nH]c(SCC(=O)c2cccc3ccccc23)n1 [HMPSNE],"cell proliferation (cell numbers after 72 hours), A549",[1],significant impact; also recorded: potentiates the anti-proliferative effect of D-cysteine
same,"cell proliferation (cell numbers after 72 hours), MDA-MB-231",[2],significant impact; also recorded: potentiates the anti-proliferative effect of D-cysteine
"COC(=O)C[C@H](NC(=O)[C@H](C)NC(=O)[C@@H](NC(=O)OCc1ccccc1)C(C)C)C(=O)CF [zVAD-fmk, reference compound] (Cbz-Val-Ala-Asp(OMe)-CH2F)",protection from D-cysteine-induced cell death by added pan-caspase inhibitor,"[3]; added to D-cysteine-exposed cells, data not shown",did not protect the cells
N[C@H](CS)C(=O)O [D-cysteine],basal oxygen consumption,[4],strongly impaired
same,maximal oxygen consumption,[4]; after oligomycin and FCCP,strongly impaired
same,"antiproliferative effect, MPM-derived cell lines",[5],antiproliferative effect
same,cellular iron (ICP-MS),[6],decrease in cellular iron
same,sensitivity of osteosarcoma cell line 143B,[7],insensitive
same,sensitivity of HeLa cells,[8],insensitive
same,"cell proliferation (cell numbers after 72 hours), A549",[1],did not significantly alter the growth
same,glutathione levels,[9],did not induce a drop in glutathione
same,FC (log2) CIAO1 protein,[10],−1.179 log2
same,FC (log2) COX4I1 protein,[10],−0.6951 log2
same,FC (log2) MT-CO3 protein,[10],−1.538 log2
same,FC (log2) MT-ND4 protein,[10],−1.86 log2
same,FC (log2) NDUFA4 protein,[10],−0.5939 log2
same,FC (log2) NDUFA5 protein,[10],−0.8033 log2
same,FC (log2) NDUFA7 protein,[10],−1.584 log2
same,FC (log2) NDUFA9 protein,[10],−0.5906 log2
same,FC (log2) NDUFA10 protein,[10],−0.8723 log2
same,FC (log2) NDUFA12 protein,[10],−0.6836 log2
same,FC (log2) NDUFS1 protein,[10],−1.133 log2
same,FC (log2) NDUFS4 protein,[10],−0.9309 log2
same,FC (log2) NDUFS7 protein,[10],−0.8355 log2
same,FC (log2) NDUFS8 protein,[10],−0.8273 log2
same,FC (log2) NDUFV1 protein,[10],−1.064 log2
same,FC (log2) NDUFV2 protein,[10],−0.7451 log2
same,FC (log2) SDHB protein,[10],−1.214 log2
same,"antiproliferative effect, H1299",[11],antiproliferative effect
same,initial level of D-cysteine in the blood,[12],around 200 μM
same,concentration at 2 h,"[12]; mouse, serum, oral, read-out: level of D-cysteine in the blood within the first 2 h",5 µM
same,"antiproliferative effect, BZR",[13],antiproliferative effect
same,proliferation of normal BEAS-2B cells,[14],resistant
same,"antiproliferative effect, MDA-MB-231",[15],antiproliferative effect
same,adverse effect on the animals,[16],no adverse effect
same,proliferation of A549 cells,[17],inhibited the proliferation; also recorded: impairs proliferation of tumor cells
same,"antiproliferative effect, LuCa62",[18],antiproliferative effect
same,cell death after first passage of cells (p1),"[3]; A549, 500 μM D-cysteine, after 72 hours, following first passage",extensive cell death
same,concentration sufficient to induce A549 cell death,"[3]; A549 cells stably expressing Cas9, culture 2-3 weeks",0.5 mM
same,caspase 3 by Western blotting,"[3]; D-cysteine-exposed cells, data not shown",No increase in caspase 3
same,lipid peroxidation,[19],induced; also recorded: induces an increase
same,sensitivity of MPM cell line H2052/484,[20],insensitive
same,"antiproliferative effect, A375",[21],antiproliferative effect
same,"cell proliferation (cell numbers after 72 hours), MDA-MB-231",[2],did not significantly alter the growth
same,mitochondrial ROS production,[22],induced ROS production; also recorded: induces an increase
"N[C@@H](CS)C(=O)O [L-cysteine, reference compound]",proliferation of A549 cells,[17],had no effect
same,proliferation of A549 cells,[17]; listed as L form of cysteine,no adverse effect
same,inhibitory effect on oxygen consumption rate (OCR),[23],responsible for the observed effect
N[C@H](CSSC[C@@H](N)C(=O)O)C(=O)O [D-cystine],proliferation of A549 cells,[17],inhibited the proliferation
